Experiments:
[1] = Stability of the compound in PBS at pH 7 measured for 48 hrs by 1H-NMR analysis; format: physicochemical; settings: buffer, pH 7, 48 h
[2] = Stability of the compound in presence of GCPII/PSMA expressing human DU-145 cells by 1H-NMR analysis; format: ADME, cell-based
[3] = target: Glutamate carboxypeptidase 2 (Homo sapiens, UniProt Q04609); experiment: Inhibition of GCPII (unknown origin) expressed in DU-145 cells after 1 hr by [67Ga]Ga-DOTA-PSMA competitive binding assay with gamma counting
Sequence of Glutamate carboxypeptidase 2 (Q04609 whole entry): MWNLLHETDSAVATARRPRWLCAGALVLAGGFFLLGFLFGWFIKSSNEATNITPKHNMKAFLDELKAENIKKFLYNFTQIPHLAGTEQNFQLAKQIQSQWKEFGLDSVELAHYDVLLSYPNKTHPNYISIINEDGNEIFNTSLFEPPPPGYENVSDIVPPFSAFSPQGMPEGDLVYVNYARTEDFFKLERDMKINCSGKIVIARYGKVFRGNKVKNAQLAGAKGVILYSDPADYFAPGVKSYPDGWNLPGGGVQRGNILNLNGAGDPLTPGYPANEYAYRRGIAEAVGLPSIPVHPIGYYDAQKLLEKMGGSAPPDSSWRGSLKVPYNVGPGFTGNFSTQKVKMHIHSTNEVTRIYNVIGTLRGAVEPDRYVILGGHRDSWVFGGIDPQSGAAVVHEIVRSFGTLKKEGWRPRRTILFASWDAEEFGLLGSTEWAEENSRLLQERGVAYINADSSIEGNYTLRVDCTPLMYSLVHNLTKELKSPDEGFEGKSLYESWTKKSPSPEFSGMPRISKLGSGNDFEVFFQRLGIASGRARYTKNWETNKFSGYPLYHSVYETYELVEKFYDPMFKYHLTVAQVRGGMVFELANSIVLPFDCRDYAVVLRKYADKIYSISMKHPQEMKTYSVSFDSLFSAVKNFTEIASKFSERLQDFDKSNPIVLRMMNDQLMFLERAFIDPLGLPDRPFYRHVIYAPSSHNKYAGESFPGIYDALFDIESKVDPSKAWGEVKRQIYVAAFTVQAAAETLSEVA

Row | SMILES | Stabilty [1] | Stabilty [2] | IC50 [3]
1 | O=C(O)CC[C@H](NC(=S)N[C@@H](CCC(=O)O)C(=O)O)C(=O)O | Stable | Stable | 135 µM
2 | O=C(O)CC[C@H](NC(=O)N[C@@H](CCC(=O)O)C(=O)O)C(=O)O | Stable | Stable | 1.34 µM

— ChEMBL document CHEMBL4811257, “Dipeptide inhibitors of the prostate specific membrane antigen (PSMA): A comparison of urea and thiourea derivatives” (Bioorg Med Chem Lett, 2021)
